Laboratory results: patent US20240262806A1, “INHIBITORS OF NLRP3” (PTC THERAPEUTICS, INC., priority 2021, published 2024)

These molecules were tested on NLRP3 inflammasome (assay: IL-1β Secretion Assay (NLRP3-dependent IL-1β secretion in PMA-differentiated THP-1 cells, nigericin activation, HTRF)). Conditions: Homo sapiens, THP-1, THP-1 cells, 100 ng/mL PMA 24 h, compound 20 h, 2.5 μM Nigericin 3 h; read-out: IC50 IL-1β Inhibition.
Format: cell-based
Procedure, shortened: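 IL-1β release, quantified by HTRF after nigericin activation of the NLRP3 inflammasome, was the read-out. A logistic fit of percent inhibition gave IC50.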

Compound	IC50
CCN1CCC[C@@H](Nc2nnc(-c3ccc(C(F)(F)F)cc3OC(F)F)c3cncn23)C1 [Compound I-574, (R)-1-(2-(Difluoromethoxy)-4-(trifluoromethyl)phenyl)-N-(1-ethylpiperidin-3-yl)imidazo[1,5-d][1,2,4]triazin-4-amine]	< 1 nM
Oc1cc(C(F)(F)F)ccc1-c1nnc(N[C@H]2CNC[C@@H](F)C2)n2cccc12 [Compound I-575]	100 to 300 nM
CCN1C[C@H](F)C[C@@H](Nc2nnc(-c3c(O)cc(C4CC4)cc3F)c3cccn23)C1 [Compound I-576]	< 1 nM
C[C@H](O)CNc1nnc(-c2c(O)cc(Cl)cc2F)c2cccn12 [Compound I-577]	10 to 100 nM
Oc1cc(Cl)ccc1-c1nnc(N[C@@H]2CCC[C@H](O)C2)n2cncc12 [Compound I-578]	< 1 nM
CCN1CCC[C@@H](Nc2nnc(-c3c(O)cc(Cl)cc3F)c3cc(C)nn23)C1 [Compound I-579]	< 1 nM
Oc1cc(Cl)ccc1-c1nnc(N[C@H]2CCOC2)n2cncc12 [Compound I-580]	1 to 10 nM
CO[C@H]1CCC[C@@H](Nc2nnc(-c3ccc(Cl)cc3O)c3cncn23)C1 [Compound I-581]	1 to 10 nM
CCN1CCC[C@H]1CNc1nnc(-c2c(O)cc(C)cc2F)c2cccn12 [Compound I-582]	1 to 10 nM
CCN1CCC[C@H]1CNc1nnc(-c2c(O)cc(C3CC3)cc2F)c2cccn12 [Compound I-583]	1 to 10 nM
CCN1CCC[C@@H](Nc2nnc(-c3ccc(OC(F)(F)F)cc3O)c3cc(C)nn23)C1 [Compound I-584]	< 1 nM
C[C@@H](O)CNc1nnc(-c2ccc(C3CC3)cc2O)c2cccn12 [Compound I-586]	100 to 300 nM
COc1ccc(-c2nnc(NC[C@@H](C)O)n3cccc23)c(O)c1 [Compound I-587]	10 to 100 nM
C[C@@H](O)CNc1nnc(-c2ccc(C(F)(F)F)cc2O)c2cccn12 [Compound I-588]	10 to 100 nM
Cc1cc2c(-c3ccc(C(F)(F)F)cc3OC(F)F)nnc(N[C@@H]3CCCN(C)C3)n2c1 [Compound I-591]	1 to 10 nM
CC(C)N1CCC[C@@H](Nc2nnc(-c3ccc(C(F)(F)F)cc3OC(F)F)c3c(F)ccn23)C1 [Compound I-592]	< 1 nM
C[C@]1(O)C[C@@H](Nc2nnc(-c3ccc(C(F)(F)F)cc3O)c3c(F)ccn23)C1 [Compound I-593]	1 to 10 nM
C[C@H](O)CNc1nnc(-c2ccc(C(F)(F)F)cc2O)c2c(F)ccn12 [Compound I-595]	10 to 100 nM
CN1C[C@H](F)C[C@@H](Nc2nnc(-c3ccc(C(F)(F)F)cc3O)c3c(F)ccn23)C1 [Compound I-596]	1 to 10 nM

Compound	IC50
CN1C[C@H](O)C[C@@H](Nc2nnc(-c3ccc(C(F)(F)F)cc3O)c3c(F)ccn23)C1 [Compound I-597]	10 to 100 nM
CCN1C[C@H](F)C[C@@H](Nc2nnc(-c3ccc(OC(F)(F)F)cc3O)c3c(F)ccn23)C1 [Compound I-598]	1 to 10 nM
CN1CCC[C@@H](Nc2nnc(-c3ccc(C4CC4)cc3O)c3c(F)ccn23)C1 [Compound I-599]	1 to 10 nM
CCN1CCC[C@@H](Nc2nnc(-c3ccc(C4CC4)cc3O)c3c(F)ccn23)C1 [Compound I-600]	< 1 nM
CN1CCC[C@@H](Nc2nnc(-c3c(O)cc(C4CC4)cc3F)c3c(F)ccn23)C1 [Compound I-601]	< 1 nM
CCN1CCC[C@@H](Nc2nnc(-c3c(O)cc(C4CC4)cc3F)c3c(F)ccn23)C1 [Compound I-602]	< 1 nM
CCN1C[C@H](O)C[C@@H](Nc2nnc(-c3ccc(C(F)(F)F)cc3OC(F)F)c3c(F)ccn23)C1 [Compound I-603]	100 to 300 nM
CCN1CCC[C@@H](Nc2nnc(-c3ccc(OC(F)(F)F)cc3O)c3c(F)ccn23)C1 [Compound I-604]	1 to 10 nM
CCN1C[C@H](O)C[C@@H](Nc2nnc(-c3ccc(OC(F)(F)F)cc3O)c3c(F)ccn23)C1 [Compound I-605]	100 to 300 nM
CCN1CCC[C@@H](Nc2nnc(-c3c(C)cc(C(F)(F)F)cc3O)c3cccn23)C1 [Compound I-606]	< 1 nM
Cc1cc2c(-c3c(O)cc(C(F)(F)F)cc3F)nnc(N[C@@H]3CCCN(C)C3)n2c1 [Compound I-607]	< 1 nM
Oc1cc(Cl)cc(F)c1-c1nnc(NC2CCCOC2)n2cccc12 (centres unmarked) [Compound I-608]	10 to 100 nM
CCN1CCC[C@@H](Nc2nnc(-c3ccc(OC(F)(F)F)cc3O)c3cccn23)C1 [Compound I-609]	1 to 10 nM
FC(F)Oc1cc(C(F)(F)F)ccc1-c1nnc(NC[C@@H]2CCCO2)n2cccc12 [Compound I-610]	10 to 100 nM
FC(F)Oc1cc(C(F)(F)F)ccc1-c1nnc(NC[C@H]2CCCO2)n2cccc12 [Compound I-611]	10 to 100 nM
CN1CCC[C@@H](Nc2nnc(-c3ccc(OC(F)F)cc3OC(F)F)c3cccn23)C1 [Compound I-612]	1 to 10 nM
CCN1CCC[C@@H](Nc2nnc(-c3ccc(OC(F)F)cc3OC(F)F)c3cccn23)C1 [Compound I-613]	1 to 10 nM
OCCN1CCC[C@@H](Nc2nnc(-c3ccc(OC(F)F)cc3OC(F)F)c3cccn23)C1 [Compound I-614]	1 to 10 nM
CN1C[C@H](F)C[C@@H](Nc2nnc(-c3ccc(OC(F)F)cc3OC(F)F)c3cccn23)C1 [Compound I-615]	10 to 100 nM

Compound	IC50
CCN1CCC[C@@H](Nc2nnc(-c3c(O)cc(OC(F)F)cc3F)c3cccn23)C1 [Compound I-616]	< 1 nM
CN1C[C@H](F)C[C@@H](Nc2nnc(-c3c(O)cc(OC(F)F)cc3F)c3cccn23)C1 [Compound I-617]	1 to 10 nM
C[C@]1(O)C[C@@H](Nc2nnc(-c3c(O)cc(OC(F)F)cc3F)c3cccn23)C1 [Compound I-618]	10 to 100 nM
CCN1C[C@H](F)C[C@@H](Nc2nnc(-c3c(O)cc(Cl)cc3F)c3cccn23)C1 [Compound I-620]	1 to 10 nM
Oc1cc(Cl)cc(F)c1-c1nnc(NCC2CCCO2)n2cccc12 (centres unmarked) [Compound I-621]	10 to 100 nM
OCCN1CCC[C@@H](Nc2nnc(-c3ccc(Br)cc3O)c3cncn23)C1 [Compound I-623]	< 1 nM
CN1CCC[C@@H](Nc2nnc(-c3ccc(C(F)(F)F)cc3OC(F)F)c3cncn23)C1 [Compound I-624]	1 to 10 nM
CN1C[C@H](F)C[C@@H](Nc2nnc(-c3ccc(C(F)(F)F)cc3OC(F)F)c3cncn23)C1 [Compound I-625]	10 to 100 nM
CCN1CCC[C@@H](Nc2nnc(-c3c(O)cc(C)cc3F)c3cncn23)C1 [Compound I-626]	< 1 nM
C[C@]1(O)C[C@@H](Nc2nnc(-c3ccc(Br)cc3O)c3cncn23)C1 [Compound I-627]	1 to 10 nM
CCN1CCC[C@@H](Nc2nnc(-c3ccc(Br)cc3O)c3cncn23)C1 [Compound I-628]	< 1 nM
CCOc1cc(O)c(-c2nnc(N[C@H]3C[C@@](C)(O)C3)n3cccc23)c(F)c1 [Compound I-629]	10 to 100 nM
CCOc1cc(O)c(-c2nnc(N[C@@H]3CCCN(C)C3)n3cccc23)c(F)c1 [Compound I-630]	1 to 10 nM
CCOc1cc(O)c(-c2nnc(N[C@@H]3C[C@@H](F)CN(C)C3)n3cccc23)c(F)c1 [Compound I-631]	10 to 100 nM
CCN1CCC[C@@H](Nc2nnc(-c3ccc(OC)cc3O)c3ccnn23)C1 [Compound I-632]	1 to 10 nM
CCN1CCC[C@@H](Nc2nnc(-c3ccc(C)cc3O)c3ccnn23)C1 [Compound I-633]	1 to 10 nM
COc1ccc(-c2nnc(N[C@@H]3CCCN(C)C3)n3nccc23)c(O)c1 [Compound I-634, (R)-5-Methoxy-2-(7-((1-methylpiperidin-3-yl)amino)pyrazolo[1,5-d][1,2,4]triazin-4-yl)phenol]	10 to 100 nM
CCN1CCC[C@@H](Nc2nnc(-c3c(C)cc(C)cc3O)c3cccn23)C1 [Compound I-636]	< 1 nM
